Data: article PMC10326263 (Acta Pharmaceutica Sinica. B, 2023)

Experiments:
[1] = test system: HIV-1 mutant strain F227L + V106A; test: microbe, parasite or virus in culture; assay type: cell-based; conditions: Human immunodeficiency virus 1, MT4, read-out: EC50 F227L + V106A
[2] = test system: HIV-1 mutant strain K103N; test: microbe, parasite or virus in culture; assay type: cell-based; conditions: Human immunodeficiency virus 1, MT4, read-out: EC50 K103N
[3] = test system: HIV-1 mutant strain Y181C; test: microbe, parasite or virus in culture; assay type: cell-based; conditions: Human immunodeficiency virus 1, MT4, read-out: EC50 Y181C
[4] = test system: HIV-1 mutant strain E138K; test: microbe, parasite or virus in culture; assay type: cell-based; conditions: Human immunodeficiency virus 1, MT4, read-out: EC50 E138K
[5] = Cytotoxicity in mock-infected MT-4 cells, MTT method; assay type: cell-based; conditions: human, mock-infected MT-4 cells, CC50, mock-infected MT-4 cells
[6] = test system: HIV-1 mutant strain L100I; test: microbe, parasite or virus in culture; assay type: cell-based; conditions: Human immunodeficiency virus 1, MT4, read-out: EC50 L100I
HIV-1 WT strain (IIIB) = test: Anti-HIV activity against WT HIV-1; conditions: WT HIV-1 IIIB
[7] = test system: HIV-1 mutant strain RES056 (K103N + Y181C); test: microbe, parasite or virus in culture; assay type: cell-based; conditions: Human immunodeficiency virus 1, MT4, read-out: EC50 RES056
[8] = test system: HIV-1 mutant strain Y188L; test: microbe, parasite or virus in culture; assay type: cell-based; conditions: Human immunodeficiency virus 1, MT4, read-out: EC50 Y188L

Row | SMILES | EC50 [1] [nM] | EC50 [2] [nM] | EC50 [3] [nM] | EC50 [4] [nM] | CC50 at 5 days [5] [nM] | EC50 [6] [nM] | SI IIIB (CC50/EC50 ratio) (HIV-1 WT strain (IIIB)) | EC50 [7] [nM] | EC50 [8] [nM]
1 | Cc1cc(C)cc(S(=O)(=O)c2c(C(=O)NCCCCCNS(=O)(=O)c3ccc(F)cc3)[nH]c3ccc(Cl)cc23)c1 [R4L5, 5-Chloro-3-((3,5-dimethylphenyl)sulfonyl)-N-(5-((4-fluorophenyl)sulfonamido)pentyl)-1H-indole-2-carboxamide] | 380 ± 17 | 510 ± 210 | 180 ± 17 | 73 ± 20 | 144000 ± 13200 | 74 ± 10 | 7527 | > 31200 | 1670 ± 350
2 | Cc1cc(C)cc(S(=O)(=O)c2c(C(=O)NCCNS(=O)(=O)c3ccc(C#N)cc3)[nH]c3ccc(Cl)cc23)c1 [R5L2, 5-Chloro-3-((3,5-dimethylphenyl)sulfonyl)-N-(2-((4-cyanophenyl)sulfonamido)ethyl)-1H-indole-2-carboxamide] | 1750 ± 53 | 840 ± 35 | 890 ± 18 | 1260 | 23600 ± 580 | 770 ± 35 | 362 | 3370 ± 210 | 3070 ± 120
3 | Cc1cc(C)cc(S(=O)(=O)c2c(C(=O)NCCCNS(=O)(=O)c3ccc(C#N)cc3)[nH]c3ccc(Cl)cc23)c1 [R5L3, 5-Chloro-3-((3,5-dimethylphenyl)sulfonyl)-N-(3-((4-cyanophenyl)sulfonamido)propyl)-1H-indole-2-carboxamide] | 1220 ± 51 | 920 ± 410 | 980 ± 51 | 270 ± 17 | 22600 ± 890 | 330 ± 34 | 732 | 4090 | 3340 ± 17
4 | Cc1cc(C)cc(S(=O)(=O)c2c(C(=O)NCCCCNS(=O)(=O)c3ccc(C#N)cc3)[nH]c3ccc(Cl)cc23)c1 [R5L4, 5-Chloro-3-((3,5-dimethylphenyl)sulfonyl)-N-(4-((4-cyanophenyl)sulfonamido)butyl)-1H-indole-2-carboxamide] | 82 ± 35 | 67 ± 5 | 54 ± 2 | 32 ± 18 | 4580 ± 3530 | 25 ± 2 | 279 | > 4580 | 150 ± 10
5 | Cc1cc(C)cc(S(=O)(=O)c2c(C(=O)NCCCCCNS(=O)(=O)c3ccc(C#N)cc3)[nH]c3ccc(Cl)cc23)c1 [R5L5, 5-Chloro-3-((3,5-dimethylphenyl)sulfonyl)-N-(5-((4-cyanophenyl)sulfonamido)pentyl)-1H-indole-2-carboxamide] | 340 ± 82 | 560 ± 130 | 210 | 160 ± 16 | > 204000 | 77 ± 23 | >6158 | 11900 ± 4900 | 1700 ± 520
6 | Cc1cc(C)cc(S(=O)(=O)c2c(C(=O)NCCNS(=O)(=O)c3ccc(Br)cc3)[nH]c3ccc(Cl)cc23)c1 [R6L2, 5-Chloro-3-((3,5-dimethylphenyl)sulfonyl)-N-(2-((4-bromophenyl)sulfonamido)ethyl)-1H-indole-2-carboxamide] | 2730 ± 480 | 950 ± 160 | 1010 ± 32 | 1270 ± 110 | 151000 ± 19300 | 750 ± 64 | 964 | ≥ 12200 | ≥ 33700
7 | Cc1cc(C)cc(S(=O)(=O)c2c(C(=O)NCCCNS(=O)(=O)c3ccc(Br)cc3)[nH]c3ccc(Cl)cc23)c1 [R6L3, 5-Chloro-3-((3,5-dimethylphenyl)sulfonyl)-N-(3-((4-bromophenyl)sulfonamido)propyl)-1H-indole-2-carboxamide] | 1480 ± 110 | 1040 ± 190 | 1320 ± 190 | 470 ± 200 | 88100 ± 18100 | 780 ± 140 | 645 | > 88100 | 5260 ± 1040
8 | Cc1cc(C)cc(S(=O)(=O)c2c(C(=O)NCCCCNS(=O)(=O)c3ccc(Br)cc3)[nH]c3ccc(Cl)cc23)c1 [R6L4, 5-Chloro-3-((3,5-dimethylphenyl)sulfonyl)-N-(4-((4-bromophenyl)sulfonamido)butyl)-1H-indole-2-carboxamide] | 510 ± 92 | 690 ± 110 | 600 ± 31 | 780 ± 540 | 26900 ± 16900 | 320 ± 150 | 347 | > 26900 | 1000 ± 150
9 | Cc1cc(C)cc(S(=O)(=O)c2c(C(=O)NCCCCCNS(=O)(=O)c3ccc(Br)cc3)[nH]c3ccc(Cl)cc23)c1 [R6L5, 5-Chloro-3-((3,5-dimethylphenyl)sulfonyl)-N-(5-((4-bromophenyl)sulfonamido)pentyl)-1H-indole-2-carboxamide] | 680 ± 75 | 740 ± 90 | 350 | 320 ± 15 | 37900 ± 6320 | 120 ± 39 | 501 | > 37900 | 2470 ± 30
10 | Cc1cc(C)cc(S(=O)(=O)c2c(C(=O)NCCNS(=O)(=O)c3ccc(Cl)cc3)[nH]c3ccc(Cl)cc23)c1 [R7L2, 5-Chloro-3-((3,5-dimethylphenyl)sulfonyl)-N-(2-((4-chlorophenyl)sulfonamido)ethyl)-1H-indole-2-carboxamide] | 1040 ± 350 | 220 | 310 ± 160 | 360 ± 17 | 175000 ± 42800 | 170 ± 41 | 13,010 | 3090 ± 500 | 2660 ± 170
11 | Cc1cc(C)cc(S(=O)(=O)c2c(C(=O)NCCCNS(=O)(=O)c3ccc(Cl)cc3)[nH]c3ccc(Cl)cc23)c1 [R7L3, 5-Chloro-3-((3,5-dimethylphenyl)sulfonyl)-N-(3-((4-chlorophenyl)sulfonamido)propyl)-1H-indole-2-carboxamide] | 2610 ± 120 | 220 | 570 ± 250 | 610 ± 120 | > 211000 | 98 ± 52 | >12,913 | 9000 ± 510 | 190 ± 190
12 | Cc1cc(C)cc(S(=O)(=O)c2c(C(=O)NCCCCNS(=O)(=O)c3ccc(Cl)cc3)[nH]c3ccc(Cl)cc23)c1 [R7L4, 5-Chloro-3-((3,5-dimethylphenyl)sulfonyl)-N-(4-((4-chlorophenyl)sulfonamido)butyl)-1H-indole-2-carboxamide] | 260 | 130 ± 48 | 180 ± 16 | 51 ± 18 | 89300 ± 17800 | 74 ± 21 | 10,389 | > 89300 | 1530 ± 720
13 | Cc1cc(C)cc(S(=O)(=O)c2c(C(=O)NCCCCCNS(=O)(=O)c3ccc(Cl)cc3)[nH]c3ccc(Cl)cc23)c1 [R7L5, 5-Chloro-3-((3,5-dimethylphenyl)sulfonyl)-N-(5-((4-chlorophenyl)sulfonamido)pentyl)-1H-indole-2-carboxamide] | 370 ± 110 | 430 ± 140 | 190 | 52 ± 9 | 115000 ± 8890 | 61 ± 3.2 | 11,132 | > 115000 | 3140 ± 950
14 | Cc1cc(C)cc(S(=O)(=O)c2c(C(=O)NCCNS(=O)(=O)c3cccs3)[nH]c3ccc(Cl)cc23)c1 [R8L2, 5-Chloro-3-((3,5-dimethylphenyl)sulfonyl)-N-(2-(thiophene-2-sulfonamido)ethyl)-1H-indole-2-carboxamide] | 1810 ± 180 | 1180 ± 91 | 1000 ± 91 | 1200 ± 18 | 161000 ± 50300 | 800 ± 94 | 1558 | 4630 ± 1540 | 6240 ± 650
15 | Cc1cc(C)cc(S(=O)(=O)c2c(C(=O)NCCCNS(=O)(=O)c3cccs3)[nH]c3ccc(Cl)cc23)c1 [R8L3, 5-Chloro-3-((3,5-dimethylphenyl)sulfonyl)-N-(3-(thiophene-2-sulfonamido)propyl)-1H-indole-2-carboxamide] | 1650 ± 270 | 1030 ± 190 | 1060 ± 18 | 280 ± 18 | 121000 ± 33400 | 500 ± 140 | 2105 | 5380 ± 1290 | 3540 ± 340
16 | Cc1cc(C)cc(S(=O)(=O)c2c(C(=O)NCCCCNS(=O)(=O)c3cccs3)[nH]c3ccc(Cl)cc23)c1 [R8L4, 5-Chloro-3-((3,5-dimethylphenyl)sulfonyl)-N-(4-(thiophene-2-sulfonamido)butyl)-1H-indole-2-carboxamide] | 360 ± 35 | 470 ± 69 | 540 | 190 ± 17 | 86500 ± 11800 | 130 ± 59 | 1953 | > 86500 | 1050 ± 35
17 | Cc1cc(C)cc(S(=O)(=O)c2c(C(=O)NCCCCCNS(=O)(=O)c3cccs3)[nH]c3ccc(Cl)cc23)c1 [R8L5, 5-Chloro-3-((3,5-dimethylphenyl)sulfonyl)-N-(5-(thiophene-2-sulfonamido)pentyl)-1H-indole-2-carboxamide] | 1260 ± 340 | 1230 ± 220 | 730 ± 340 | 200 ± 51 | 35400 ± 1050 | 170 ± 17 | 526 | > 43300 | 2710 ± 130
